# Assays:
# Type in all cases: in vivo, mouse
# apolipoprotein B mRNA [1] = experiment: Target mRNA levels in liver of ApoE knockout mice, RT-PCR; conditions: six weeks
# Protocol: (§1) Female ApoE knockout mice ranged in age from 5 to 7 weeks and were placed on a normal diet for 2 weeks before study initiation. ApoE knockout mice were then fed ad libitum a 60% fat diet, with 0.15% added cholesterol to induce dyslipidemia and obesity. Control animals were maintained on a high-fat diet with no added cholesterol After overnight fasting, mice from each group were dosed intraperitoneally every three days with saline, 50 mg/kg of a control antisense oligonucleotide (ISIS 29837 […]; SEQ ID NO. 124) or 5, 25 or 50 mg/kg ISIS 147764 (SEQ ID No: 109) for six weeks.
# (§2) At study termination and forty eight hours after the final injections, animals were sacrificed and evaluated for target mRNA levels in liver by RT-PCR methods verified by Northern Blot analysis, glucose levels, cholesterol and lipid levels by HPLC separation methods and triglyceride and liver enzyme levels (perfomed by LabCorp Preclinical Services; San Diego, Calif.). Data are normalized to saline controls.
# [2] = Cholesterol, lipoprotein, triglyceride and serum glucose levels, lean vs high fat fed C57BL/6 mice; conditions: 50 mg/kg i.p. every three days, six weeks
# Protocol: (§3) Male C57BL/6 mice were divided into two matched groups; (1) wild-type control animals (lean animals) and (2) animals receiving a high fat diet (60% kcal fat). Control animals received saline treatment and were maintained on a normal rodent diet. After overnight fasting, mice from each group were dosed intraperitoneally every three days with saline or 50 mg/kg ISIS 147764 (SEQ ID No: 109) for six weeks. At study termination and forty eight hours after the final injections, animals were sacrificed and evaluated for target mRNA levels in liver, cholesterol and triglyceride levels, liver enzyme levels and serum glucose levels.
# [3] = Glucose, cholesterol and lipoprotein levels in ApoE knockout mice; conditions: for Lipoprotein Levels HDL: Control 51; for Glucose Levels: Control 225; for Lipoprotein Levels LDL: Control 525; for Lipoprotein Levels VLDL: Control 1190; for Cholesterol Levels: Control 1750
# Protocol: as §1, §2
# [4] = Body, spleen, liver and fat pad weight, high fat fed mice, 6 week study; conditions: compared to saline-treated controls
# Protocol: (§4) Male C57BL/6 mice (n=8) receiving a high fat diet (60% kcal fat) were evaluated over the course of 6 weeks for the effects of treatment with the antisense oligonucleotide, ISIS 147764. Control animals received saline treatment (50 mg/kg). A subset of animals received a daily oral dose (20 mg/kg) atorvastatin calcium (Lipitor®, Pfizer Inc.). All mice, except atorvastatin-treated animals, were dosed intraperitoneally every three days (twice a week), after fasting overnight, with 5, 25, 50 mg/kg ISIS 147764 (SEQ ID No: 109) or saline (50 mg/kg) for six weeks. Serum cholesterol and lipoproteins were analyzed at 0, 2 and 6 week interim timepoints. At study termination, animals were sacrificed 48 hours after the final injections and evaluated for levels of target mRNA levels in liver, cholesterol, lipoprotein, triglyceride, liver enzyme (AST and ALT) and serum glucose levels as well as body, liver, spleen and fat pad weights.
# Male C57BL/6 mice (n=8) receiving a high fat diet (60% kcal fat) were evaluated over the course of 6 weeks for the effects of ISIS 147764 on body, spleen, liver and fat pad weight. Control animals received saline treatment (50 mg/kg). Mice were dosed intraperitoneally every three days (twice a week), after fasting overnight, with 5, 25, 50 mg/kg ISIS 147764 (SEQ ID No: 109) or saline (50 mg/kg) for six weeks.
# At study termination, animals were sacrificed 48 hours after the final injections and body, spleen, liver and fat pad weights were measured. Values are expressed as percent change in body weight or ogan weight compared to the saline-treated control animals. Data from mice treated with atorvastatin at a daily dose of 20 mg/kg are also shown in the table Negative values indicated a decrease in weight.
# apolipoprotein B mRNA [5] = experiment: Target mRNA levels in liver, lean vs high fat fed C57BL/6 mice; conditions: 50 mg/kg i.p. every three days, six weeks
# Protocol: as §3
# [6] = Serum glucose levels, high fat fed mice, 6 week study; conditions: study termination, saline control 300 mg/dL
# Protocol: as §4
# Male C57BL/6 mice (n=8) receiving a high fat diet (60% kcal fat) were evaluated over the course of 6 weeks for the effects of ISIS 147764 on serum glucose levels. Control animals received saline treatment (50 mg/kg). Mice were dosed intraperitoneally every three days (twice a week), after fasting overnight, with 5, 25, 50 mg/kg ISIS 147764 (SEQ ID No: 109) or saline (50 mg/kg) for six weeks.
# At study termination, animals were sacrificed 48 hours after the final injections and evaluated for serum glucose levels. […] Mice treated with atorvastatin at a daily oral dose of 20 mg/kg had serum glucose levels of 215 mg/dL.
# [7] = Serum AST and ALT levels, high fat fed mice, 6 week study; conditions: for ALT levels / AST levels: 6 weeks; for ALT levels: saline control 25 IU/L; for AST levels: saline control 65 IU/L
# Protocol: as §4
# Male C57BL/6 mice (n=8) receiving a high fat diet (60% kcal fat) were evaluated over the course of 6 weeks for the effects of ISIS 147764 on liver enzyme (AST and ALT) levels. Control animals received saline treatment (50 mg/kg). Mice were dosed intraperitoneally every three days (twice a week), after fasting overnight, with 5, 25, 50 mg/kg ISIS 147764 (SEQ ID No: 109) or saline (50 mg/kg) for six weeks.
# Values in the table are expressed as IU/L. Increased levels of the liver enzymes ALT and AST indicate toxicity and liver damage.
sequence,measurement,setting,value
"GTCCCTGAAGATGTCAATGC (2'-MOE gapmer with phosphorothioates, pattern not given here) [ISIS 147764, 2′-MOE gapmer phosphorothioate oligonucleotide to mouse apolipoprotein B]",mRNA Percent Inhibition,apolipoprotein B mRNA [1]; 5 mg/kg i.p. every three days,2%
same,mRNA Percent Inhibition,apolipoprotein B mRNA [1]; 25 mg/kg i.p. every three days,42%
same,mRNA Percent Inhibition,apolipoprotein B mRNA [1]; 50 mg/kg i.p. every three days,70%
same,CHOL Percent Change,[2]; high fat fed C57BL/6 mice,−67%
same,GLUC Percent Change,[2]; high fat fed C57BL/6 mice,−28%
same,Lipoproteins HDL Percent Change,[2]; high fat fed C57BL/6 mice,−65%
same,Lipoproteins LDL Percent Change,[2]; high fat fed C57BL/6 mice,−87%
same,Lipoproteins VLDL Percent Change,[2]; high fat fed C57BL/6 mice,No
same,TRIG Percent Change,[2]; high fat fed C57BL/6 mice,No
same,CHOL Percent Change,[2]; lean C57BL/6 mice,−63%
same,GLUC Percent Change,[2]; lean C57BL/6 mice,No
same,Lipoproteins HDL Percent Change,[2]; lean C57BL/6 mice,−44%
same,Lipoproteins LDL Percent Change,[2]; lean C57BL/6 mice,−64%
same,Lipoproteins VLDL Percent Change,[2]; lean C57BL/6 mice,No
same,TRIG Percent Change,[2]; lean C57BL/6 mice,−34%
same,Lipoprotein Levels HDL,[3]; 5 mg/kg,49 mg/dL
same,Glucose Levels,[3]; 5 mg/kg,195 mg/dL
same,Lipoprotein Levels LDL,[3]; 5 mg/kg,475 mg/dL
same,Lipoprotein Levels VLDL,[3]; 5 mg/kg,1111 mg/dL
same,Cholesterol Levels,[3]; 5 mg/kg,1630 mg/dL
same,Lipoprotein Levels HDL,[3]; 25 mg/kg,62 mg/dL
same,Glucose Levels,[3]; 25 mg/kg,209 mg/dL
same,Lipoprotein Levels LDL,[3]; 25 mg/kg,500 mg/dL
same,Lipoprotein Levels VLDL,[3]; 25 mg/kg,1194 mg/dL
same,Cholesterol Levels,[3]; 25 mg/kg,1750 mg/dL
same,Lipoprotein Levels HDL,[3]; 50 mg/kg,61 mg/dL
same,Glucose Levels,[3]; 50 mg/kg,191 mg/dL
same,Lipoprotein Levels LDL,[3]; 50 mg/kg,325 mg/dL
same,Lipoprotein Levels VLDL,[3]; 50 mg/kg,1113 mg/dL
same,Cholesterol Levels,[3]; 50 mg/kg,1490 mg/dL
same,Fat pad weight Percent Change,[4]; 5 mg/kg,10%
same,Liver weight Percent Change,[4]; 5 mg/kg,18%
same,Spleen weight Percent Change,[4]; 5 mg/kg,10%
same,Total Body Wt. Percent Change,[4]; 5 mg/kg,5%
same,Fat pad weight Percent Change,[4]; 25 mg/kg,6%
same,Liver weight Percent Change,[4]; 25 mg/kg,70%
same,Spleen weight Percent Change,[4]; 25 mg/kg,10%
same,Total Body Wt. Percent Change,[4]; 25 mg/kg,5%
same,Fat pad weight Percent Change,[4]; 50 mg/kg,−47%
same,Liver weight Percent Change,[4]; 50 mg/kg,80%
same,Spleen weight Percent Change,[4]; 50 mg/kg,46%
same,Total Body Wt. Percent Change,[4]; 50 mg/kg,−4%
same,mRNA Percent Change,apolipoprotein B mRNA [5]; high fat fed (60% kcal fat) C57BL/6 mice,−87%
same,mRNA Percent Change,apolipoprotein B mRNA [5]; lean C57BL/6 mice,−73%
same,serum glucose levels,[6]; 5 mg/kg,225 mg/dL
same,serum glucose levels,[6]; 25 mg/kg,190 mg/dL
same,serum glucose levels,[6]; 50 mg/kg,180 mg/dL
same,ALT levels,[7]; 5 mg/kg,50 IU/L
same,AST levels,[7]; 5 mg/kg,105 IU/L
same,ALT levels,[7]; 25 mg/kg,70 IU/L
same,AST levels,[7]; 25 mg/kg,70 IU/L
same,ALT levels,[7]; 50 mg/kg,100 IU/L
same,AST levels,[7]; 50 mg/kg,80 IU/L
same,change in AST levels over the duration of the study compared to saline controls,"[7]; 5, 25 and 50 mg/kg",no significant change
